Assay results published in ChEMBL document CHEMBL3872277, “1-Heteroarylpropan-2-ones as inhibitors of fatty acid amide hydrolase: Studies on structure-activity relationships and metabolic stability” (Bioorg Med Chem, 2017).
In brackets after ≈: the same amount, converted by molar mass.

Legend:
[1] = Metabolic stability in rat liver S9 fraction assessed as amount of parent compound remaining after 30 mins under aerobic conditions in presence of NADPH by reversed HPLC -UV detection analysis; format: ADME, subcellular; conditions: for remaining at 0.5 h: liver S9 fraction, read-out: Stability; for Stability: s9, 0.5 h
[2] = target: T1, Fatty-acid amide hydrolase 1 (Rattus norvegicus, UniProt P97612); assay: Inhibition of FAAH in rat brain microsomes using N-(2-hydroxyethyl)-4-pyren-1-ylbutanamide as substrate after 60 mins by fluorescence-based reversed phase HPLC analysis
T1 sequence (P97612 whole entry): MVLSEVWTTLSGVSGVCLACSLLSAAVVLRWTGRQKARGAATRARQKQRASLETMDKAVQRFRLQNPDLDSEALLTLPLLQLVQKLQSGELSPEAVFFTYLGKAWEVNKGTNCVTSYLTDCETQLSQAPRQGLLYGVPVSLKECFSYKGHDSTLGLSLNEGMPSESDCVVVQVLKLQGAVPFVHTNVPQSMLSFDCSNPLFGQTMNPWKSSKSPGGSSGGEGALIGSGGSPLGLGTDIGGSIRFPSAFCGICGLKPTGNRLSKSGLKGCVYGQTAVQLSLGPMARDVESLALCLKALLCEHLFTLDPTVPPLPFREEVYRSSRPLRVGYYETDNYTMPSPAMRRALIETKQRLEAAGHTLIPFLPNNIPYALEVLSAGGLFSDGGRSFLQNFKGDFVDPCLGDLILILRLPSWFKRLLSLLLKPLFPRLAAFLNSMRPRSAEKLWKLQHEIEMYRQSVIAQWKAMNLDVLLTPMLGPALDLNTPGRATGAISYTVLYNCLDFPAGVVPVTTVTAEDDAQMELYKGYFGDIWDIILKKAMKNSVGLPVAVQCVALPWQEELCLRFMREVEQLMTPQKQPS

[3] = Inhibition of pig platelet cytosolic phospholipase A2alpha using 1-stearoyl-2-arachidonoyl-sn-glycero-3-phosphocholine/1,2-dioleoyl-sn-glycerol as substrate after 60 mins by reversed phase HPLC-UV detection analysis; parameters: species or system Sus scrofa
[4] = Thermodynamic aqueous solubility of the compound at pH 7.4 at 20 degC sonicated for 10 mins after 24 hrs UV-HPLC analysis; format: physicochemical; conditions: read-out: Therm_solubility
[5] = Ratio of IC50 for pig platelet cytosolic phospholipase A2alpha to IC50 for FAAH in rat brain microsomes
[6] = Drug metabolism in rat liver S9 fraction assessed as hydroxylation product metabolite formation after 30 mins under aerobic conditions in presence of NADPH by reversed HPLC/MS analysis; format: ADME, subcellular; conditions: s9, 0.5 h
[7] = Drug metabolism in rat liver S9 fraction assessed as alcohol derivative metabolite formation after 30 mins under aerobic conditions in presence of NADPH by reversed HPLC/MS analysis; format: ADME, subcellular; conditions: s9, 0.5 h

SMILES	remaining at 0.5 h [1] [%]	IC50 [2] [nM]	also measured
CC(C(=O)COc1ccc(-c2ccccc2)cc1)n1nnc2ccccc21 (stereo unspecified)	21	630	–
CCCCCCCCCCOc1ccc(OCC(=O)COc2ccc(C(=O)O)cc2)cc1	–	–	IC50 [3]: 6.5 nM
CCCCCCCCc1ccc(OCC(=O)Cn2nnc3cccnc32)cc1	–	13	–
O=C(COc1ccc(-c2cccc(F)c2)cc1)Cn1nnc2ccccc21	–	14	Stability [1]: Unstable
CCCCCCCCc1ccc(OCC(=O)Cn2cnc3ncccc32)cc1	–	620	–
CCCCCCCCc1ccc(OCC(=O)Cn2ccnc2)cc1	–	410	–
CCCCCCCCc1ccc(OCC(=O)Cn2nccn2)cc1	–	100	–
CC(C(=O)COc1ccc(-c2ccccc2)cc1)n1cnnn1 (stereo unspecified)	11	> 10000	–
CCCCCCCCc1ccc(OCC(=O)Cn2ncc3ncccc32)cc1	–	93	–
O=C(COc1ccc(-c2cccc(Cl)c2)cc1)Cn1nnc2ccccc21	–	11	Stability [1]: Unstable
CCCCCCCCc1ccc(OCC(=O)Cn2ccc3ncccc32)cc1	–	> 10000	–
O=C1NC(=O)C(c2ccccc2)(c2ccccc2)N1 [PHENYTOIN]	–	–	solubility thermodynamic at 24 h [4]: 18 µg/mL (≈ 71.4 µM)
CCCCCCCCc1ccc(OCC(=O)Cn2cnc3ccccc32)cc1	–	480	–
CC(Oc1ccc(-c2ccccc2)cc1)C(=O)Cn1ncnn1 (stereo unspecified)	0	9	solubility thermodynamic at 24 h [4]: 2 µg/mL (≈ 6.49 µM); IC50 [3]: 3300 nM; Ratio IC50 [5]: 100 to 500
CCCCCCCCc1ccc(OCC(=O)Cn2cncn2)cc1	–	53	–
CCCCCCCCc1ccc(OCC(=O)Cn2ncc3cccnc32)cc1	–	1600	–

SMILES	remaining at 0.5 h [1] [%]	IC50 [2] [nM]	also measured
O=C(COc1ccc(-c2ccc(Cl)cc2)cc1)Cn1nnc2ccccc21	–	21	Stability [1]: Unstable
CCCCCCCCc1ccc(OCC(=O)Cn2cccn2)cc1	–	840	–
CC(Oc1ccc(-c2ccc(F)cc2)cc1)C(=O)Cn1nnc2ccccc21 (stereo unspecified)	29	12	–
CC(Oc1ccc(-c2ccccc2)cc1)C(=O)Cn1nnc2ccccc21 (stereo unspecified)	23	13	solubility thermodynamic at 24 h [4]: < 1 µg/mL; IC50 [3]: 6800 nM; Ratio IC50 [5]: 100 to 500
CC(C(=O)COc1ccc(-c2ccccc2)cc1)n1ncnn1 (stereo unspecified)	0	6300	–
O=C(COc1ccc(-c2ccc(F)cc2)cc1)Cn1nnc2ccccc21	–	12	Stability [1]: Unstable
CCCCCCCCc1ccc(OCC(=O)Cn2ncc3ccccc32)cc1	–	2300	–
CCC(Oc1ccc(-c2ccccc2)cc1)C(=O)Cn1nnc2ccccc21 (stereo unspecified)	51	1800	Drug metabolism [6]: Metabolite_Notdetected
CCCCCCCCc1ccc(OCC(=O)Cn2nnc3ncccc32)cc1	–	49	–
CC(Oc1ccc(-c2ccccc2)cc1)C(=O)Cn1cnnn1 (stereo unspecified)	9	19	solubility thermodynamic at 24 h [4]: 4 µg/mL (≈ 13 µM); IC50 [3]: 6900 nM; Ratio IC50 [5]: 100 to 500
CCCCCCCCc1ccc(OCC(=O)Cn2cnc3cccnc32)cc1	–	410	–
O=C(COc1ccc(-c2ccccc2)cc1)Cn1ncnn1	0	11	solubility thermodynamic at 24 h [4]: 10 µg/mL (≈ 34 µM); IC50 [3]: 1800 nM; Ratio IC50 [5]: 100 to 500
CCCCCCCCc1ccc(OCC(=O)Cn2nnc3ccccc32)cc1	–	15	–
O=C(COc1ccc(-c2ccccc2)cc1)Cn1nnc2ccccc21	0	12	solubility thermodynamic at 24 h [4]: 2 µg/mL (≈ 5.82 µM); Drug metabolism [7]: Metabolite_Detected; IC50 [3]: 2400 nM; Ratio IC50 [5]: 100 to 500
O=C(COc1ccc(-c2ccccc2)cc1)Cn1cnnn1	0	43	solubility thermodynamic at 24 h [4]: 11 µg/mL (≈ 37.4 µM); IC50 [3]: 4900 nM; Ratio IC50 [5]: 100 to 500
